Assay results: patent US20120302609A1, “Pyrazolines for the Modulation of PKM2” (Dynamix Pharmaceuticals LTD., priority 2011, published 2012)

What was measured:
H1299 (lung) = assay: Cell proliferation assay (CellTiter-Glo Luminescent); assay type: cell-based, human; conditions: 96 hr
Experimental: 1. Cells were grown according to the ATCC conditions. 2. Cell feeding (passaging) was timed such that the cells were in exponential growth phase at the time of the assay.
3. On day 1, H1299 cells were counted. Cell numbers were adjusted to the desired cell concentration in Media 1: RPMI 1640 Invitrogen 11879020 (that contained no glucose or pyruvate) with 10% FBS, and 1 mM D-Glucose (4 μl of 2.5 M D-glucose G8769 was added in preparing 10 ml RPMI media with 1 mM glucose). A 200 μl of H1299 cell suspension was added to appropriate wells in the 96-well plates, and incubated at 37° C. in the CO2 cell incubator under normal growing conditions for overnight. 4. On day 2, a 100 mM stock concentration of test compounds in 100% DMSO was prepared and serially diluted with 100% DMSO to 33.33 mM, 11.11 mM, and 3.7 mM. A 1:1000 dilution was made to each concentration in media 1 (yielding 0.1% final DMSO concentration). The media was aspirated completely from the cell plate. Each 100 μl of the following solutions (100 μM, 33.33 μM, 11.11 μM, and 3.7 μM) was added to the cells. DMSO in a final concentration of 0.1%, and media without DMSO, were added to the cells and used as a negative control. Empty wells around the experimental wells were filled with PBS. The plate was sealed with parafilm to reduce evaporation. 5. The plate was incubated under normal conditions (5% CO2, and 95% air), for 96 hours at 37° C. 6. On day 6 (after 96 hr incubation), the plate was equilibrated to room temperature for approximately 30 minutes. A 100 μl of CellTiter-Glo Reagent was added in each well of the plate. Contents were mixed for 2 minutes on an orbital shaker to induce cell lysis. The plate was incubated at room temperature for 10 minutes to stabilize luminescent signal. Luminescence was recorded with Flexstation 3.
Unless noted otherwise, proliferation of control or compound treated H1299 cells was measured using CellTiter-Glo Luminescent assay following 96 hr incubation of the cells with and without test compounds. The AC50 values, shown in Table 3, were coded according to follows: A: <3 μM; B: 3-10 μM; C: 10-20 μM; or D: >20 μM.

[1] = system: HT-29 cells (a colorectal cancer cell line); assay: Combination with 5-FU on HT-29 cells; assay type: cell-based, human; conditions: FIG. 5
[2] = system: H1299 (Non-small cell lung carcinoma cell line); assay: Cell proliferation index assay, Assay Protocol II (Fluofarma, flow cytometry); assay type: cell-based; conditions: Homo sapiens, NCI-H1299
Experimental: In a second assay to determine the inhibition of cell proliferation by a test compound, cell proliferation of the cell line of interest was measured by a cell proliferation index assay using Fluofarma (www.fluofarma.com) based technology. This assay is based on the dilution rate of a fluorescent membrane marker, which is a direct function of the number of cell divisions. Briefly, the assay is performed by loading the cells with a non-toxic fluorescent phospholipid analog before the seeding. […] Flow cytometry analysis of the fluorescent probe is performed after the loading of the cells both prior to, as well as after treatment with various concentrations of the test compound. The dilution rate of the fluorescent probe at the single cell level is directly correlated to the number of cell divisions.

PKM2, human recombinant = biological target: T1, PKM2, human recombinant (Homo sapiens, UniProt P14618); assay: PKM2 enzymatic activity assay (Kinase-Glo Plus luminescence); assay type: biochemical; conditions: for AC50: 0.1 nM PKM2, 0.1 mM ADP, 0.5 mM PEP, 1 hour, room temperature, read-out: AC50 group; for Emax: 1 h, maximum percent activity, luminescence without compound = 0% activity, read-out: Max activity Group;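 for Max activity Group: percent increase over no-compound signal after subtracting the no-PKM2 background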
T1 construct: purchased BPS 50295
T1 sequence (P14618 whole entry): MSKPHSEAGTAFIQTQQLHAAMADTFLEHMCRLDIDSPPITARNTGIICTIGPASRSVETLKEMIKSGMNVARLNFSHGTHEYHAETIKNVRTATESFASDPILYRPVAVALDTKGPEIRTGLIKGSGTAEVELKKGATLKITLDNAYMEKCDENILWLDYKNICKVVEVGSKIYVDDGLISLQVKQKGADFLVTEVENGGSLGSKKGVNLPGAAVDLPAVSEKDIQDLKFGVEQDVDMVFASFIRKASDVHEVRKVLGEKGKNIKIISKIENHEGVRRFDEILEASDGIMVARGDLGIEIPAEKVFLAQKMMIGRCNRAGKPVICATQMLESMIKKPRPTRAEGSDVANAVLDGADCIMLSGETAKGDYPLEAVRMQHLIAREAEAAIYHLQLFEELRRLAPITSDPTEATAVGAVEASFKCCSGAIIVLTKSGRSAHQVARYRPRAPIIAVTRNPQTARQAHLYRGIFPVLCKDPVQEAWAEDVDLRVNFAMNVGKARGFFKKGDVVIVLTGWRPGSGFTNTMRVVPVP
Summary of the method: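 Activation assay: 0.1 nM recombinant human PKM2 with 0.1 mM ADP and 0.5 mM PEP in imidazole buffer pH 7.2, 1 hour at room temperature, in duplicate; ATP produced read by Kinase-Glo Plus luminescence. % activity relative to no-compound and no-enzyme wells; AC50 as half-maximal activation from sigmoidal fit; FBP 0.5 mM positive control.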

BT-549 (breast) = assay: Cell proliferation assay (CellTiter-Glo Luminescent); assay type: cell-based; conditions: Homo sapiens, Complete media
DU145 (prostate) = assay: as above; assay type: cell-based; conditions: Homo sapiens, DU-145, Complete media, 96 hr
PKM1 = PKM1 (Homo sapiens, UniProt P14618); assay: Isoform selectivity of pyruvate kinases; assay type: biochemical
PKM1, sequence (P14618 1-531 isoform P14618-2): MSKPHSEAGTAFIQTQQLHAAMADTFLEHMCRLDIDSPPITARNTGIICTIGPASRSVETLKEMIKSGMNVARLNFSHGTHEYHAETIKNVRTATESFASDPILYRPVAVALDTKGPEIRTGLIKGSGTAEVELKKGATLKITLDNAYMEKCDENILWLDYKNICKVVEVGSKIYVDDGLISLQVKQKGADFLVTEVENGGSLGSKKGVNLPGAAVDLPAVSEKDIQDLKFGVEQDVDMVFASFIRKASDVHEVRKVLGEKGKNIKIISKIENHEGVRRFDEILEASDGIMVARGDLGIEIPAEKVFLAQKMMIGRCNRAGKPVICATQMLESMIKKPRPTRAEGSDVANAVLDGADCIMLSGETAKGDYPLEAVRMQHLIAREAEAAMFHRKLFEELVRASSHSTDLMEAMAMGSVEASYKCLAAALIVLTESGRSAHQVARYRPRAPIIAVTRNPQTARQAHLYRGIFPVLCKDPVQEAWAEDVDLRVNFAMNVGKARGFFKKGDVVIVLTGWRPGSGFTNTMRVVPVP

[3] = Homo sapiens, NCI-H1299, 1 mM glucose

SMILES	AC50 (H1299 (lung); [3]) [µM]	effect in combination with 5-FU [1]	IC50 [2] [µM]	AC50 (PKM2, human recombinant) [µM]	Emax (PKM2, human recombinant) [%]	AC50 (BT-549 (breast); Assay duration: 72 hours, Readout: CellTiter Glo) [µM]	AC50 (H1299 (lung); 5 mM glucose) [µM]	AC50 (H1299 (lung); Complete media) [µM]	AC50 (DU145 (prostate)) [µM]	AC50 (PKM1)	AC50 (BT-549 (breast); 96 hr, CellTiter-Glo) [µM]
CCS(=O)(=O)Nc1ccc(C2=NN(C(C)=O)C(c3ccc(OC)cc3)C2)cc1 (racemic) [Compound 1A, N-(4-(1-acetyl-5-(4-methoxyphenyl)-4,5-dihydro-1H-pyrazol-3-yl)phenyl)ethanesulfonamide]	10 to 20	at least additive	40 to 100	≤ 1	130 to 200	> 20					
COc1ccc([C@@H]2CC(c3ccc(NS(=O)(=O)c4ccc(F)cc4)cc3)=NN2C(C)=O)cc1 [Compound 13A, (S)—N-(4-(1-acetyl-5-(4-methoxyphenyl)-4,5-dihydro-1H-pyrazol-3-yl)phenyl)-4-fluorobenzenesulfonamide]	10 to 20			≤ 1	130 to 200		10 to 20	10 to 20	10 to 20	Not active	10 to 20
